In one data set the test system is M1, M2 (w/Gqi5) and M3 ACh receptors stably expressed in CHO cells. Nature of the data set: Calcium mobilization (FLIPR) IC50 determination for antagonists of ACh induced muscarinic receptor activation. In kind it is cell-based, human. The conditions noted are these: EC80 concentration of ACh, active if IC50 of between 33 uM and 10 nM or less, receptor subtype (M1/M2/M3) not specified. The text has this: Calcium Mobilization Studies (FLIPR)
Studies to determine the effectiveness of antagonists to cause blockade of functional intracellular calcium fluxes following agonist (ACh) treatment of cloned human receptors.
This system is used for characterizations of antagonist-receptor interactions using four distinct variations of the FLIPR methodology: (a) potency: IC50 determination, (b) potency: pA2 determination, (c) reversibility of antagonist-receptor interaction, or (d) confirmation of no functional agonist activity. • Cell Source The human M1-M3 receptors are cloned and stably expressed in Chinese Hamster Ovary (CHO) cells. The M2 receptors are co-expressed with the chimeric G protein, Gqi5. • Cell lines: M1 stable: Biocat #1044; M2+Gqi5 stable: Biocat #95663; M3 stable: Biocat #1049 • Method of Culture: CHO-M1, CHO-Gqi5-M2 and CHO-M3 cells are cultured to confluence at 37° C. in a humidified incubator with 5% CO2/95% air. CHO-M1 and CHO-M3 are cultured in Alpha MEM with nucleosides and L-glutamine and 10% fetal calf serum. […] The emitted fluorescence from all 96 wells is measured simultaneously using a cooled CCD camera. Data points are collected every second. Maximal change in emission from each well after simultaneous addition of agonist or compound to each of the 96 wells is then exported to an excel spreadsheet. […] Experimental Protocols: • Cell plating: A microtiter plate based calcium mobilization FLIPR (Fluorometric Imaging Plate Reader, Molecular Devices, Sunnyvale Calif., [Schroeder KS, Neagle, BD. FLIPR: a new instrument for accurate, high throughput optical screening. J. Biomol. Screen. 1996; 1:75.]) assay is used for the functional characterization of compounds against M1, M2 (w/Gqi5) and M3 ACh receptors stably expressed in CHO cells. […] The basal emission fluorescence is measured, then the cellular response to an EC80 concentration of ACh (3.3 nM against M1, 10 nM against M2 and 1.0 nM against M3) prepared in KRH assay buffer with 0.1% BSA (no gelatin), is monitored in FLIPR for 90 seconds and then 50 μL of 100 μM ATP (assay concentration of 20 μM) is added to check cell viability (H. M. Sarau et al, 1999. Mol. Pharmacol. 56, 657-663). […]
For orientation: Calcium assays in cells follow changes in intracellular calcium, usually with a dye or a luminescent sensor.
Consider `CCc1nc2c(cnn2CC)c(NC2CCOCC2)c1CNCc1cccc(C(=O)NCc2ccc(F)c(-c3cccc(CN4CCNCC4)c3)c2)c1` [Example 228, 3-[({[1,6-Diethyl-4-(tetrahydro-2H-pyran-4-ylamino)-1H-pyrazolo[3,4-b]pyridin-5-yl]methyl}amino)methyl]-N-{[6-fluoro-3′-(1-piperazinylmethyl)-3-biphenylyl]methyl}benzamide], for which the “IC50: compound pretreatment concentration which inhibits 50% of the ACh induced response” value is reported as “most active”. On the same count and under the same terms, the same measure for `CCc1nc2c(cnn2CC)c(NC2CCOCC2)c1CNC(=O)c1cccc(C(=O)NCc2ccc(F)c(-c3cccc(CNC4CCCC4)c3)c2)c1` [Example 307, N-({3′-[(Cyclopentylamino)methyl]-6-fluoro-3-biphenylyl}methyl)-N′-{[1,6-diethyl-4-(tetrahydro-2H-pyran-4-ylamino)-1H-pyrazolo[3,4-b]pyridin-5-yl]methyl}-1,3-benzenedicarboxamide]: “most active”; for `CCc1nc2c(cnn2CC)c(NC2CCOCC2)c1CNC(=O)c1cccc(C(=O)NCc2cc(-c3cccc(CN4CCN(C)CC4)c3)ccc2OC)c1` [Example 271, N-{[1,6-Diethyl-4-(tetrahydro-2H-pyran-4-ylamino)-1H-pyrazolo[3,4-b]pyridin-5-yl]methyl}-N′-({4-(methyloxy)-3′-[(4-methyl-1-piperazinyl)methyl]-3-biphenylyl}methyl)-1,3-benzenedicarboxamide]: “most active”.

System in a further data set: not given
Assay: not given
Settings: not given
For the compound `CCc1nc2c(cnn2CC)c(NC2CCOCC2)c1CNC(=O)c1cccc(C(=O)NCc2ccc(Cl)c(-c3cccc(CN4CCCN(C)CC4)c3)c2)c1` [Example 218, N-({6-Chloro-3′-[(4-methylhexahydro-1H-1,4-diazepin-1-yl)methyl]-3-biphenylyl}methyl)-N′-{[1,6-diethyl-4-(tetrahydro-2H-pyran-4-ylamino)-1H-pyrazolo[3,4-b]pyridin-5-yl]methyl}-1,3-benzenedicarboxamide], the melting point (commonly the temperature of the solid-liquid transition) is 105 to 107 °C.

With `CCc1nc2c(cnn2CC)c(NC2CCOCC2)c1CNC(=O)c1cccc(C(=O)NCc2ccc(F)c(-c3cccc(CN4CCCNCC4)c3)c2)c1` [Example 204, N-{[1,6-Diethyl-4-(tetrahydro-2H-pyran-4-ylamino)-1H-pyrazolo[3,4-b]pyridin-5-yl]methyl}-N′-{[6-fluoro-3′-(hexahydro-1H-1,4-diazepin-1-ylmethyl)-3-biphenylyl]methyl}-1,3-benzenedicarboxamide], the melting point fell in the range of 145 to 148 °C. On the same count and under the same terms, the same measure for `CCc1nc2c(cnn2CC)c(NC2CCOCC2)c1CNC(=O)c1cccc(C(=O)NCc2cc(Cl)cc(-c3cccc(CN4C[C@@H](C)N[C@@H](C)C4)c3)c2)c1` [Example 429, N-[(5-Chloro-3′-{[(3R,5S)-3,5-dimethyl-1-piperazinyl]methyl}-3-biphenylyl)methyl]-N′-{[1,6-diethyl-4-(tetrahydro-2H-pyran-4-ylamino)-1H-pyrazolo[3,4-b]pyridin-5-yl]methyl}-1,3-benzenedicarboxamide]: 112 to 114 °C; for `CCc1nc2c(cnn2CC)c(NC2CCOCC2)c1CNC(=O)c1cccc(C(=O)NCc2ccc(C)c(-c3cccc(CN4C[C@@H](C)N[C@@H](C)C4)c3)c2)c1` [Example 211, N-{[1,6-Diethyl-4-(tetrahydro-2H-pyran-4-ylamino)-1H-pyrazolo[3,4-b]pyridin-5-yl]methyl}-N′-[(3′-{[(3R,5S)-3,5-dimethyl-1-piperazinyl]methyl}-6-methyl-3-biphenylyl)methyl]-1,3-benzenedicarboxamide]: 109 to 112 °C. The same measure, in the same setting: the same measure for `CCc1nc2c(cnn2CC)c(NC2CCOCC2)c1CNC(=O)c1cccc(C(=O)NCc2ccc(F)c(-c3cccc(CN4CCN(C)CC4)c3)c2)c1` [Example 200, N-{[1,6-Diethyl-4-(tetrahydro-2H-pyran-4-ylamino)-1H-pyrazolo[3,4-b]pyridin-5-yl]methyl}-AN-({6-fluoro-3′-[(4-methyl-1-piperazinyl)methyl]-3-biphenylyl}methyl)-1,3-benzenedicarboxamide]: 169 to 173 °C; for `CCc1nc2c(cnn2CC)c(NC2CCOCC2)c1CNC(=O)c1cccc(C(=O)NCc2ccc(OC)c(-c3cccc(CN4CCCN(C)CC4)c3)c2)c1` [Example 217, N-{[1,6-Diethyl-4-(tetrahydro-2H-pyran-4-ylamino)-1H-pyrazolo[3,4-b]pyridin-5-yl]methyl}-N′-{[3′-[(4-methylhexahydro-1H-1,4-diazepin-1-yl)methyl]-6-(methyloxy)-3-biphenylyl]methyl}-1,3-benzenedicarboxamide]: 116 to 119 °C; for `CCc1nc2c(cnn2CC)c(NC2CCOCC2)c1CNC(=O)c1cccc(C(=O)NCc2ccc(F)c(-c3cccc(CN4CCN(C(C)C)CC4)c3)c2)c1` [Example 203, N-{[1,6-Diethyl-4-(tetrahydro-2H-pyran-4-ylamino)-1H-pyrazolo[3,4-b]pyridin-5-yl]methyl}-N′-[(6-fluoro-3′-{[4-(1-methylethyl)-1-piperazinyl]methyl}-3-biphenylyl)methyl]-1,3-benzenedicarboxamide]: 165 to 169 °C.

In turn, `CCc1nc2c(cnn2CC)c(NC2CCOCC2)c1CNC(=O)c1cccc(C(=O)NCc2ccc(C)c(-c3cccc(CN4CCCN(C)CC4)c3)c2)c1` [Example 216, N-{[1,6-Diethyl-4-(tetrahydro-2H-pyran-4-ylamino)-1H-pyrazolo[3,4-b]pyridin-5-yl]methyl}-N′-({6-methyl-3′-[(4-methylhexahydro-1H-1,4-diazepin-1-yl)methyl]-3-biphenylyl}methyl)-1,3-benzenedicarboxamide] came in with a melting point of 107 to 109 °C. On the same count and under the same terms, the same measure for `CCc1nc2c(cnn2CC)c(NC2CCOCC2)c1CNC(=O)c1cccc(C(=O)NCc2ccc(OC)c(-c3cccc(CN4C[C@@H](C)N[C@@H](C)C4)c3)c2)c1` [Example 210, N-{[1,6-Diethyl-4-(tetrahydro-2H-pyran-4-ylamino)-1H-pyrazolo[3,4-b]pyridin-5-yl]methyl}-N′-{[3′-{[(3R,5S)-3,5-dimethyl-1-piperazinyl]methyl}-6-(methyloxy)-3-biphenylyl]methyl}-1,3-benzenedicarboxamide]: 127 to 129 °C; for `CCc1nc2c(cnn2CC)c(NC2CCOCC2)c1CNC(=O)c1cccc(C(=O)O)c1`: 207 to 209 °C; for `O=C(O)c1cccc(C(=O)NCc2ccc(F)c(-c3cccc(CO)c3)c2)c1`: 169 to 171 °C.

Take `CCc1nc2c(cnn2CC)c(NC2CCOCC2)c1CNC(=O)c1cccc(C(=O)NCc2cc(Cl)cc(-c3cccc(CN4CCCNCC4)c3)c2)c1` [Example 430, N-{[5-Chloro-3′-(hexahydro-1H-1,4-diazepin-1-ylmethyl)-3-biphenylyl]methyl}-N′-{[1,6-diethyl-4-(tetrahydro-2H-pyran-4-ylamino)-1H-pyrazolo[3,4-b]pyridin-5-yl]methyl}-1,3-benzenedicarboxamide]: the melting point fell in the range of 121 to 124 °C.

For the origin of these results see US8067408B2, “Dual pharmacophores—PDE4-muscarinic antagonistics” (priority 2008, dated 2011).
